The subject of data set [1] is Regular RNA 20-mer oligonucleotide SEQ ID NO:1. Description: Duplex melting temperature (Tm), SEQ ID NO:1 strand as Regular RNA. Type of data set: binding. Particulars: SEQ ID NO:1 strand Regular RNA; four μM each strand, 50 mM NaCl, 10 mM PO4 buffer, pH 7.4. On the procedure:
(§1) The stability of duplexes having 2′-substituted nucleotides versus duplexes without such modification was tested by examining the Tm of these complexes. four μM each of 20-mer oligonucleotide (5′-ggt ggt tcc tcc tca gtc gg-3′; SEQ ID NO:1) and its complement (5′-ccg act gag aag gaa cca cc-3′; SEQ ID NO:2) were bound in a solution of 50 mM NaCl, 10 mM PO4 buffer, pH 7.4. Each of the nucleotides of the oligonucleotide had the same 2′ group. Following binding, the melting temperature was determined as described (See L. L. Cummins et al., Nucleic Acids Research 23:2019-2024 (1995)).

Data set [2] deals with 2′-OMe RNA oligo 150-mer (SEQ ID NO:3). Description: Fluorescence signal of 12-mer probes bound to captured 150-mer on streptavidin plate. Type of data set: binding. Particulars: individual probes, fluorescence (Oregon Green 488). The text has this:
A 2′-OMe RNA oligo 150-mer (SEQ ID NO:3) was captured using a 15-mer 2′-OMe oligo tethered through biotin-streptavidin onto a white 96-well plate. Observations were taken of individual 2′-OMe 12-mers complementary to portions of the 150-mer labeled on the 5′-end with Oregon Green 488. Once the signal levels were obtained for single sequences, various combinations of the 12-mers were used to determine whether the fluorescence signal from the probes was additive. The sequences of these probes were chosen at 12-base steps through the sequence of the 150-mer.

Data set [3] has as its target Avidin (Gallus gallus, UniProt P02701). Particulars: cited from earlier work.
Data set [4] has as its system polyclonal antibodies to cAMP. Particulars: cited from earlier work.
Data set [5] relates to Regular DNA 20-mer oligonucleotide SEQ ID NO:1. Description: Duplex melting temperature (Tm), SEQ ID NO:1 strand as Regular DNA. Type of data set: binding. The settings on record: SEQ ID NO:1 strand Regular DNA; four μM each strand, 50 mM NaCl, 10 mM PO4 buffer, pH 7.4. On the procedure: as §1
Data set [6] concerns folate binding proteins. Particulars: cited from earlier work.

The source of these data is patent publication US6440723B1, “Arrays with modified oligonucleotide and polynucleotide compositions” (Oligos Etc. Inc., priority 1998, dated 2002).

Sequence of Avidin (P02701 25-152): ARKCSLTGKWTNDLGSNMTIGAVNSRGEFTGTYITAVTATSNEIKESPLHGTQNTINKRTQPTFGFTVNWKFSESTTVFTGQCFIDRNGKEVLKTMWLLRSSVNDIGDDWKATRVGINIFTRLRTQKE

On to “2′-O-methyl: 20-mer SEQ ID NO:2 (5′-ccg act gag aag gaa cca cc-3′), each nucleotide 2′-O-methyl”, for which the melting temperature (Tm) in data set [1] was 79 °C.
As for 5′-AUAGGGAAUCCU-butanol-3′ [Probe (6)], the Signal in data set [2] came to 810.
Take 5′-CCACCUCACGAA-butanol-3′ [Probe (2)]: the Signal in data set [2] (listed as (2)) stood at 297.
On to 5′-CCACCUCACGAA-butanol-3′ [Probe (9)], for which, in data set [2] (listed as (9)), the Signal came out at 514.
As to 5′-CGAGUCCUGCAC-butanol-3′ [Probe (5)], the Signal in data set [2] is recorded as 85.
Regarding 5′-GCCGUACUGUAG-butanol-3′ [Probe (3)], the Signal in data set [2] stood at 256.
On the same count and under the same terms, next, 5′-GGGGCCGUACUG-butanol-3′ [Probe (10)]: 46; 5′-GUGCGGGUGAUG-butanol-3′ [Probe (4)]: 115; 5′-UGCAGUACAUGU-butanol-3′ [Probe (7)]: 466.
As to 5′-UGUUCACCAUGC-butanol-3′ [Probe (1)], the Signal in data set [2] (listed as (1)) was found to be 124.
As for 5′-UGUUCACCAUGC-butanol-3′ [Probe (8)], the Signal in data set [2] (listed as (8)) came out at 133.
Turning to `COC(=O)CCCCC1SCC2C1NC(=O)N2C(=O)OC` (centres unmarked) [1′-N-methoxy-carbonylbiotin methyl ester], in data set [3], the “Binding affinity with Avidin” value is reported as 10^7 M^−1.
In the case of `O=C(O)CCCCC1SCC2NC(=S)NC21` (centres unmarked) [2-thiobiotin], the “Binding affinity with Avidin” value in data set [3] was 10^13 M^−1.
With `COC(=O)CCCCC1SCC2NC(=O)N(C(=O)OC)C21` (centres unmarked) [3′-N-methoxy-carbonylbiotin methyl ester], in data set [3], the “Binding affinity with Avidin” value is 10^9 M^−1.
Consider `O=C(O)CCCC[C@@H]1SC[C@@H]2NC(=O)N[C@@H]21` [Biotin], for which the “Binding affinity with Avidin” value in data set [3] was 10^15 M^−1.
For `C[C@@H]1NC(=O)N[C@@H]1CCCCCC(=O)O` [Dethiobiotin], the “Binding affinity with Avidin” value in data set [3] is 10^13 M^−1.
In the case of `N=C1N[C@H]2[C@H](CS[C@H]2CCCCC(=O)O)N1` [Iminobiotin], the “Binding affinity with Avidin” value in data set [3] was 10^11 M^−1.
Turning to `Nc1ncnc2c1ncn2[C@@H]1O[C@@H]2COP(=O)(O)O[C@H]2[C@H]1O` [cAMP, cyclic AMP], the “Ka of polyclonal antibodies to cAMP” value in data set [4] is 10^10 to 10^12 M^−1.
“Regular DNA: 20-mer SEQ ID NO:2 (5′-ccg act gag aag gaa cca cc-3′) as regular DNA [reference compound]”: in data set [1], the Tm amounted to 66 °C.
Still for that read-out and setting: next, “p-ethoxy 2′-O-methyl: 20-mer SEQ ID NO:2 (5′-ccg act gag aag gaa cca cc-3′) as p-ethoxy 2′-O-methyl”: 71 °C.
For the molecule “p-ethoxy DNA: 20-mer SEQ ID NO:2 (5′-ccg act gag aag gaa cca cc-3′) as p-ethoxy DNA”, the Tm in data set [5] turned out to be 55 °C.
For “p-ethoxy RNA: 20-mer SEQ ID NO:2 (5′-ccg act gag aag gaa cca cc-3′) as p-ethoxy RNA”, the Tm in data set [1] was 56 °C.
tetrahydrofolate: in data set [6], the Ka is 3e+11 M⁻¹.

The term Tm denotes the temperature at which the thermal transition is half complete.
